Measured values taken from patent US12370149B1, “Transdermal cannabidiol delivery device” (ZHI Technologies, Inc., priority 2024, dated 2025).

Assay: Solubility of CBD in mineral oil
Type: physicochemical
Description: Cannabidiol content. As discussed above, the matrices and TTDs of the present disclosure are advantageously formulated with a “saturated-plus-excess” concentration of CBD. The solubility of CBD in mineral oil (and by extension a PIB/mineral oil blend since PIB and mineral oil have the same solubility) is 4% (w/w). The amount of CBD in the matrix should be at least twofold, e.g., at least threefold, at least fourfold, or at least fivefold more CBD than the maximum concentration of CBD that dissolves in the plasticizer (e.g., mineral oil). The amount of CBD in the matrix can be any amount from about 10% (w/w) to about 30% (w/w) of the matrix, for example about 12.0% (w/w), about 12.5% (w/w), about 13.0% (w/w), about 13.5% (w/w), about 14.0% (w/w), about 14.5% (w/w), about 15.0% (w/w), about 15.5% (w/w), about 16.0% (w/w), about 16.5% (w/w), about 17.0% (w/w), about 17.5% (w/w), about 18.0% (w/w), about 18.5% (w/w), about 19.0% (w/w), about 19.5% (w/w), about 20.0% (w/w), or about 20.5% (w/w) of the matrix. The amount of cannabinoids other than CBD should be less than about 10% (w/w), for example less than about 1% (w/w).

SMILES: C=C(C)[C@@H]1CCC(C)=C[C@H]1c1c(O)cc(CCCCC)cc1O [CBD, cannabidiol]
- solubility of CBD in mineral oil (and by extension a PIB/mineral oil blend): 4 % (w/w)
